Patent US20030180304A1, “Secretory tyrosine phosphatases from mycobacteria” (priority 2000, published 2003)
Entries after “also recorded” stand apart in the source; their conditions may differ.

Key:
MptpA = molecular target: T1, MptpA (Mycobacterium tuberculosis, UniProt P9WIA1); format: biochemical, M. tuberculosis; conditions: pH 7
T1 construct: made in house; host or cells: E. coli BL21 (pGEX-5X-3)

MptpB = molecular target: T2, MptpB (Mycobacterium tuberculosis, UniProt I6WXK4); format: biochemical, M. tuberculosis; conditions: pH 5.6
T2 construct: made in house; host or cells: E. coli BL21 (pGEX-5X-3)
T2 sequence (I6WXK4 whole entry, looked up): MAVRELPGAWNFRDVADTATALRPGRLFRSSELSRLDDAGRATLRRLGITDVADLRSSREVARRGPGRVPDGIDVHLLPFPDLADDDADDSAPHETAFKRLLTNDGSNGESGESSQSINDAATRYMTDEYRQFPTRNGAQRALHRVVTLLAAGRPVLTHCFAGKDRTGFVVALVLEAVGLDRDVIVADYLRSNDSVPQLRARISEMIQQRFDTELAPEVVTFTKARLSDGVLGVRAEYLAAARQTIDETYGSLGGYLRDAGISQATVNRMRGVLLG

T1 sequence (P9WIA1 whole entry): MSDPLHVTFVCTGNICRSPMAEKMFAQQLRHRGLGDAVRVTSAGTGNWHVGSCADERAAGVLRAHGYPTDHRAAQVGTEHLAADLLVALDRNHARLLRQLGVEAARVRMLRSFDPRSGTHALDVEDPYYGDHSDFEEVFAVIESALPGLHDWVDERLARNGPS

Row | SMILES | Effect of inhibitor on the activity of MptpA towards tyrosine phosphorylated MBP (MptpA) | Effect of inhibitor on the activity of MptpB towards tyrosine phosphorylated MBP (MptpB)
1 | C=C1[C@@H](O)[C@@H]2O[C@]3(CC[C@H](/C=C/[C@@H](C)[C@@H]4CC(C)=C[C@@]5(O[C@H](C[C@@](C)(O)C(=O)O)CC[C@H]5O)O4)O3)CC[C@H]2O[C@@H]1[C@@H](O)C[C@H](C)[C@H]1O[C@@]2(CCCCO2)CC[C@H]1C [okadaic acid] | had no effect; also recorded: did not inhibit | had no effect; also recorded: did not inhibit
2 | [F-].[Na+] [sodium fluoride] | had no effect | had no effect
3 | [Na+].[Na+].[Na+].[O]=[V]([O-])([O-])[O-] [sodium orthovanadate] | inhibited | inhibited
4 | O=C(O)C(O)C(O)C(=O)O (stereo not shown) [tartrate] | had no effect; also recorded: insensitive | had no effect; also recorded: insensitive
5 | c1ccc(C2CN3CCSC3=N2)cc1 (stereo not shown) [tetramisole] | had no effect; also recorded: insensitive | had no effect; also recorded: insensitive
